Several values for one entry are separate records, joined by “and”; a condition that tells them apart may be missing. Equal entries are not always repeated.
Details: transient hot wire

O=C(C(F)(F)C(F)(F)F)C(F)(C(F)(F)F)C(F)(F)F [dodecafluoro-2-methylpentan-3-one]
Details | thermal conductivity
331.38 K, 45565 kPa, Liquid | 0.06924 W/m/K
331.38 K, 45571 kPa, Liquid | 0.06916 W/m/K
331.39 K, 36560 kPa, Liquid | 0.06692 W/m/K
331.4 K, 36561 kPa, Liquid | 0.0672 W/m/K
331.51 K, 102 kPa, Gas | 0.01402 W/m/K
331.54 K, 107 kPa, Gas | 0.01383 W/m/K
331.55 K, 3950 kPa, Liquid | 0.05388 W/m/K
331.55 K, 3951 kPa, Liquid | 0.05379 W/m/K
331.56 K, 72 kPa, Gas | 0.01361 W/m/K
331.58 K, 74 kPa, Gas | 0.01363 W/m/K
331.64 K, 28068 kPa, Liquid | 0.06457 W/m/K
331.64 K, 28075 kPa, Liquid | 0.06383 W/m/K
331.67 K, 20446 kPa, Liquid | 0.06141 W/m/K
331.67 K, 20447 kPa, Liquid | 0.06118 W/m/K
331.7 K, 14109 kPa, Liquid | 0.0585 W/m/K
331.71 K, 14116 kPa, Liquid | 0.05838 W/m/K
331.75 K, 8577 kPa, Liquid | 0.05613 W/m/K
331.75 K, 69214 kPa, Liquid | 0.07577 W/m/K
331.76 K, 8578 kPa, Liquid | 0.0562 W/m/K
331.76 K, 69231 kPa, Liquid | 0.07536 W/m/K
331.77 K, 57729 kPa, Liquid | 0.0724 W/m/K
331.77 K, 57733 kPa, Liquid | 0.07259 W/m/K
331.79 K, 239 kPa, Liquid | 0.05138 W/m/K
331.79 K, 45573 kPa, Liquid | 0.06907 W/m/K
331.8 K, 242 kPa, Liquid | 0.05139 W/m/K
331.8 K, 45574 kPa, Liquid | 0.06925 W/m/K
331.81 K, 102 kPa, Gas | 0.01364 W/m/K
331.83 K, 106 kPa, Gas | 0.01386 W/m/K
331.83 K, 36555 kPa, Liquid | 0.06649 W/m/K
331.83 K, 36558 kPa, Liquid | 0.06686 W/m/K
331.84 K, 107 kPa, Liquid | 0.05166 W/m/K and 0.05159 W/m/K
331.86 K, 71 kPa, Gas | 0.01366 W/m/K
331.89 K, 74 kPa, Gas | 0.01368 W/m/K
332.07 K, 3947 kPa, Liquid | 0.05394 W/m/K
332.08 K, 3946 kPa, Liquid | 0.05395 W/m/K
332.12 K, 28065 kPa, Liquid | 0.06395 W/m/K
332.12 K, 28069 kPa, Liquid | 0.06418 W/m/K
332.14 K, 107 kPa, Gas | 0.01388 W/m/K
332.18 K, 20442 kPa, Liquid | 0.0612 W/m/K and 0.06122 W/m/K
332.19 K, 71 kPa, Gas | 0.0138 W/m/K
332.19 K, 69215 kPa, Liquid | 0.07588 W/m/K
332.19 K, 69218 kPa, Liquid | 0.07551 W/m/K
332.22 K, 57721 kPa, Liquid | 0.07263 W/m/K
332.22 K, 57724 kPa, Liquid | 0.07259 W/m/K
332.23 K, 74 kPa, Gas | 0.01373 W/m/K
332.23 K, 14110 kPa, Liquid | 0.05828 W/m/K
332.23 K, 14111 kPa, Liquid | 0.05807 W/m/K
332.27 K, 45566 kPa, Liquid | 0.06911 W/m/K
332.28 K, 45563 kPa, Liquid | 0.06904 W/m/K
332.3 K, 8573 kPa, Liquid | 0.0558 W/m/K
332.3 K, 8574 kPa, Liquid | 0.05582 W/m/K
332.32 K, 36553 kPa, Liquid | 0.06631 W/m/K
332.33 K, 36552 kPa, Liquid | 0.06642 W/m/K
332.35 K, 238 kPa, Liquid | 0.05149 W/m/K
332.35 K, 239 kPa, Liquid | 0.05131 W/m/K
332.38 K, 108 kPa, Liquid | 0.05165 W/m/K
332.39 K, 107 kPa, Liquid | 0.05161 W/m/K
332.47 K, 102 kPa, Gas | 0.01373 W/m/K
332.56 K, 71 kPa, Gas | 0.01389 W/m/K
332.59 K, 73 kPa, Gas | 0.01379 W/m/K
332.65 K, 28066 kPa, Liquid | 0.0639 W/m/K
332.66 K, 28069 kPa, Liquid | 0.06388 W/m/K
332.68 K, 3944 kPa, Liquid | 0.05341 W/m/K
332.68 K, 3949 kPa, Liquid | 0.05349 W/m/K
332.68 K, 69200 kPa, Liquid | 0.07562 W/m/K
332.69 K, 69200 kPa, Liquid | 0.07558 W/m/K
332.73 K, 20437 kPa, Liquid | 0.06118 W/m/K
332.73 K, 57710 kPa, Liquid | 0.07255 W/m/K
332.73 K, 57718 kPa, Liquid | 0.07251 W/m/K
332.74 K, 20439 kPa, Liquid | 0.06126 W/m/K
332.8 K, 45557 kPa, Liquid | 0.06917 W/m/K
332.81 K, 45558 kPa, Liquid | 0.06905 W/m/K
332.82 K, 14107 kPa, Liquid | 0.05846 W/m/K
332.83 K, 102 kPa, Gas | 0.01371 W/m/K
332.83 K, 14108 kPa, Liquid | 0.05829 W/m/K
332.85 K, 107 kPa, Gas | 0.01391 W/m/K
332.87 K, 36553 kPa, Liquid | 0.06645 W/m/K
332.87 K, 36556 kPa, Liquid | 0.06639 W/m/K
332.91 K, 8572 kPa, Liquid | 0.05573 W/m/K
332.91 K, 8573 kPa, Liquid | 0.05574 W/m/K
332.94 K, 70 kPa, Gas | 0.01377 W/m/K
332.97 K, 73 kPa, Gas | 0.01383 W/m/K
332.97 K, 230 kPa, Liquid | 0.05124 W/m/K
332.98 K, 237 kPa, Liquid | 0.05109 W/m/K
